Columns and labels:
KRAS G12V = target: T1, KRAS G12V (Homo sapiens, UniProt P01116, G12V); assay: NanoBit assay for RAS activation (LgBiT-KRAS G12V / SmBiT-CRAF RBD); format: cell-based; settings: 2 h with inhibitor, serum free DMEM
T1 construct: CRAF RBD (1-149) fused to SmBiT; transfected cells
Procedure: (§1) FIGS. 1a), 1b) and 1c): NanoBit assay for RAS activation (KRAS G12V, NRAS G12V, HRAS G12V)
(§2) N-terminal LgBiT and C-terminal SmBiT construct was purchased from Promega and K, N and HRAS G12V (full length) was cloned with Xho I and Bgl II to LgBit and CRAF Ras binding domain (1-149) was cloned with EcoRI and Bgl II to SmBit. For transfections, 1 μg or 2 μg of (12 well/6 well) plasmids were transfected into cells with 0.5 mM of PEI reagent in 100 μl or 200 μl PBS. One day after transfection, cells were harvested and seeded into 96 well white plates, half area (Greiner). After an additional day the medium was changed to serum free DMEM and the cells were incubated for 2 h with inhibitor. NanoGlo assay was performed according to the manufacturer's instructions. The luminescence was measured using Tecan infinite (Tecan).
(§3) HeLa S3 (DSMZ) were authenticated by Eurofin genomics and cultured in DMEM (10% heat inactivated FBS). NCI-H358 cells were cultured in RPMI-1640 (10% heat inactivated FBS).

NRAS G12V = target: T2, NRAS G12V (Homo sapiens, UniProt P01111, G12V); assay: NanoBit assay for RAS activation (LgBiT-NRAS G12V / SmBiT-CRAF RBD); format: cell-based; settings: 2 h with inhibitor, serum free DMEM
T2 construct: CRAF RBD (1-149) fused to SmBiT; transfected cells (HeLa S3 likely), NanoBiT
T2 sequence (P01111 1-186 G12V): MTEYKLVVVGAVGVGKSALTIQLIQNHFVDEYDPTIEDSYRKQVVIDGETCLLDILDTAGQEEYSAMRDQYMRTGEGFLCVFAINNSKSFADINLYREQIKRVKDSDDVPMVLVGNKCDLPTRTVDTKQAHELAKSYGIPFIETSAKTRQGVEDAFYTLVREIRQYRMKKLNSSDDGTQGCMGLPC
Procedure: as §1, §2, §3

HRAS G12V = target: T3, HRAS G12V (Homo sapiens, UniProt P01112, G12V); assay: NanoBit assay for RAS activation (LgBiT-HRAS G12V / SmBiT-CRAF RBD); format: cell-based; settings: 2 h with inhibitor, serum free DMEM
T3 construct: CRAF RBD (1-149) fused to SmBiT; transfected cells (HeLa S3 likely), NanoBiT
T3 sequence (P01112 1-186 G12V): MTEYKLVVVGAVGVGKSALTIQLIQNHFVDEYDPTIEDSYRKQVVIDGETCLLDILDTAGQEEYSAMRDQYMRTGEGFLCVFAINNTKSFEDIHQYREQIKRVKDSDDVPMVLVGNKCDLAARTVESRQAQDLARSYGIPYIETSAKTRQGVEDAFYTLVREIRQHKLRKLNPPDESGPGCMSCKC
Procedure: as §1, §2, §3

NCI-H358 = assay: Soft agar colony formation assay, MTT; format: cell-based; settings: Homo sapiens, 3 independent experiments
Procedure: (§4) FIGS. 2a), 2b) and 2c): MTT assay for cell growth
(§5) Metabolic activity was quantified using Cell Proliferation Kit I (Roche, Basel, Switzerland). Cells were seeded in 96-well cell culture plates, using 5000 cells per well for NCI-H358 cells. After treatment, 10 μl of MTT solution was added and incubated for 2 h in CO2 incubator. Then 100 μl of solubilization buffer was added to each well and incubated overnight in CO2 incubator. Cell viability, assessed by the amount of metabolized MTT, was quantified by measuring absorbance at 570 nm.
(§6) MTT assay for the growth of different tumour cell lines with RAS mutations in soft agar with Sanguinarine chloride. Shown are data from three independent experiments. NCI-H358, H358, H2122, ASPC-1, HCT-116, T24 and HT1080 cells were used for the soft agar colony formation assay. After the treatment with Sanguinarine chloride, the colonies were stained with MTT and the value was quantified by measuring absorbance at 570 nm after solubilization. The results represent mean±SEM from 3 independent experiments.
as §3

ASPC1 = assay: Soft agar colony formation assay, MTT; format: cell-based; settings: Homo sapiens, 3 independent experiments
Procedure: as §4, §5, §6

HCT-116 = assay: Soft agar colony formation assay, MTT; format: cell-based; settings: Homo sapiens; HCT-116, soft agar, 3 independent experiments
Procedure: as §4, §5, §6

HT1080 = assay: Soft agar colony formation assay, MTT; format: cell-based; settings: Homo sapiens, HT-1080, 3 independent experiments
Procedure: as §4, §5, §6

NCI-H2122 = assay: Soft agar colony formation assay, MTT; format: cell-based; settings: Homo sapiens, 3 independent experiments
Procedure: as §4, §5, §6

T24 = assay: Soft agar colony formation assay, MTT; format: cell-based; settings: Homo sapiens, T-24, 3 independent experiments
Procedure: as §4, §5, §6

[1] = test system: different RAS-isoform addicted cell-lines; assay: Soft agar colony formation assay, MTT; format: cell-based
Procedure: as §4, §5, §6

[2] = test system: KRAS mutants (G12V, G12C, G12D, G12C/Y96D, G13C, G13D, G13S, Q61K and Q61R); assay: NanoBiT assay for the RAS GTP-loading in HeLa cells transfected with LgBit-KRAS mutants and SmBit-CRAF-RBD; format: cell-based; settings: 2 h, serum-free DMEM
Procedure: NanoBiT assay for the RAS GTP-loading was performed in HeLa cells transfected with LgBit-KRAS mutants and SmBit-CRAF-RBD. Cells were treated with Sanguinarine chloride for 2 h in serum-free DMEM. After incubation, the substrate for NanoLuc was added, and the luminescence was measured in a multiplate reader. Data were normalized to cells transfected with the indicated mutant and exposed to DMSO for 2 h. DMSO-treated cells were set as 1. The bars represent mean±SEM from 3 independent experiments.
as §3

BaF3 KRAS G12C/Y96D = assay: MTT assay for cell viability; format: cell-based; settings: Mus musculus, 48 h, 3 independent experiments
Procedure: (§7) FIGS. 4a) and 4b): MTT assay for cell viability in 96 well cell culture plate Cells were treated with Sanguinarine chloride for 48 h and cell viability was evaluated by MTT assay. DMSO-treated cells were set as 1. The results shown are mean±SEM from 3 independent experiments.

BaF3 KRAS G12C = assay: MTT assay for cell viability; format: cell-based; settings: Mus musculus, 48 h, 3 independent experiments
Procedure: as §7

KRAS dependent cells = assay: MTT assay for cell viability; format: cell-based; settings: 48 h, irrespective of the presence of mutation
Procedure: as §7

sNF96.2 = assay: RASOpathie-Model; MTT assay for cell viability; format: cell-based; settings: sNF96.2, 48 h
Procedure: FIG. 5: RASOpathie-Model Sanguinarine chloride; MTT assay for cell viability in 96 well cell culture plate
Cells were treated with Sanguinarine chloride for 48 h and cell viability was evaluated by MTT assay. DMSO-treated cells were set as 1. The results shown are mean±SEM from 3 independent experiments.

[3] = test system: Na+/K+-ATPase transmembrane protein; settings: through action on the Na+/K+-ATPase; cited from earlier work

T1 sequence (P01116 1-188 isoform P01116-2 G12V): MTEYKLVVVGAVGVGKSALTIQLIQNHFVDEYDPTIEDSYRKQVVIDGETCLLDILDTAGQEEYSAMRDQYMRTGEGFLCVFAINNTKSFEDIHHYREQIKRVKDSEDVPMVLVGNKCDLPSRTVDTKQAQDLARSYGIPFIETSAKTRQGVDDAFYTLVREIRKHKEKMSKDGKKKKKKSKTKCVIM

inhibition of K-RAS activation (KRAS G12V)	inhibition of N-RAS activation (NRAS G12V)	inhibition of H-RAS activation (HRAS G12V)	IC50 (NCI-H358) [nM]	IC50 (ASPC1) [nM]	IC50 (HCT-116) [nM]	IC50 (HT1080) [nM]	IC50 (NCI-H2122) [nM]	IC50 (T24) [nM]	IC50 (BaF3 KRAS G12C/Y96D) [nM]	IC50 (BaF3 KRAS G12C) [nM]	SMILES	growth of RAS-isoform addicted cell-lines [1]	inhibition of different RAS-isoforms (RAS GTP-loading) [2]	inhibition of KRAS dependent cells (KRAS dependent cells)	IC50 (sNF96.2; 3 independent experiments) [nM]	inhibition of RAS protein of RASOpathie (sNF96.2; MTT)	toxicity to animal cells [3]
inhibits	inhibits	inhibits	1450	970	530	870	1550	1020	1760	1190	C[n+]1cc2c3c(ccc2c2ccc4cc5c(cc4c21)OCO5)OCO3.[Cl-] [Sanguinarine chloride, 13-Methyl-[1,3]benzodioxolo[5,6-c]-1,3-dioxolo[4,5-i]phenanthridinium chloide]	blocks the growth of different RAS-isoform addicted cell-lines and stops the growth of cancer	inhibits different RAS-isoforms	inhibits KRAS dependent cells irrespective of the presence of mutation	1390	inhibits RAS protein of RASOpathie	
											C[n+]1cc2c3c(ccc2c2ccc4cc5c(cc4c21)OCO5)OCO3 [Sanguinarine, 13-Methyl[1,3]benzodioxolo[5,6-c]-1,3-dioxolo[4,5-J]phenanthridinium]						kills animal cells through its action on the Na+/K+-ATPase transmembrane protein

From patent US20260294893A1, “NOVEL RAS INHIBITORS” (KHR Biotec GmbH, priority 2022, published 2026)
